{"source": "paper PMC8229129", "about": "“Local Colonic Administration of a Serine Protease Inhibitor Improves Post-Inflammatory Visceral Hypersensitivity in Rats” (Pharmaceutics, 2021)", "key": {"kallikrein 4": {"tested_on": "kallikrein 4", "design": "method as in PMID 29911328", "settings": "in vitro; cited from earlier work"}, "thrombin": {"tested_on": "thrombin", "design": "method as in PMID 29911328", "settings": "in vitro; cited from earlier work"}, "[1]": {"assay": "Observation of side-effects after administration in pharmacokinetic experiments", "format": "in vivo", "settings": "rats, within 180 min after administration (1 mg/kg i.v. or 5 mg/kg intracolonic)", "description": "(§1) To evaluate the pharmacokinetic properties of UAMC-00050, it was administered in male Sprague–Dawley rats (200–225 g) either colonically (5 mg/kg, in a volume of 200 µL 5% DMSO solution) or intravenously (1 mg/kg in a volume of 200 µL 5% DMSO solution). Plasma samples were collected after 5, 15, 30, 45, 60, 90, 120, and 180 min via the tail vein and stored at −80 °C until analysis."}, "dry eye syndrome": {"tested_on": "dry eye syndrome", "design": "method as in PMID 33057006", "settings": "rat model of dry eye syndrome; cited from earlier work"}, "[2]": {"assay": "Pharmacokinetics after intravenous administration (plasma, LC-MS/MS, PKSolver two-compartment model)", "format": "in vivo, Sprague–Dawley rats", "settings": "rat, i.v. 1 mg/kg", "description": "as §1\nSample preparation and analysis of plasma samples consisted of protein precipitation followed by direct injection in a liquid chromatography–tandem mass spectrometry (LC-MS/MS) instrument. Briefly, 100 µL of plasma was spiked with 20 µL of nordazepam-D5 used as internal standard for quantification (yielding in a final concentration of 485 ng/mL) and afterwards 180 µL of acetonitrile was added to precipitate proteins. Subsequently, the samples were vortexed for 2.5 min at 2000× g and centrifuged for 5 min at 10,000× g. In a next step, 100 µL of the supernatant was transferred to a 0.20 µm centrifugal filter to remove remaining particles. After centrifugation for 5 min at 10,000× g, the remaining filtrate was transferred to an autosampler vial ready to be analyzed with LC-MS/MS. A seven-level point calibration curve with final concentrations ranging between 5 and 1000 ng/mL and a curve weighting factor of 1/x^2 was prepared in blank mouse plasma using different working solution standards of UAMC-00050 and a fixed amount of internal standard. The lower limit of quantification of the method was 5 ng/mL.\nA gradient was applied as follows: 0–0.5 min: 5% B; 0.5–10 min 5–100% B; 10–12 min 100% B; and 12–12.1 min 5% B. The total run time was 18 min and the injection volume was set to 5 µL. Detection and quantification of UAMC-00050 were performed with an Agilent 6410 triple quadrupole MS system with an electrospray interface (ESI) operating in positive ionization mode. The following source parameters were applied: gas temperature 350 °C, gas flow 10 L/min, nebulizer 35 psi, and capillary voltage 4000 V. Compound-dependent MS parameters are summarized in Table 1. The most abundant transition of UAMC-00050 was used as quantifier and the other transitions were used for confirmation (qualifiers). For compound confirmation, the following criteria were used: the quantifier/qualifier ratio should fall within ±15% of the ratio observed in calibrators and the relative retention time should fall within 2.5% of the values observed in the calibrators.\nAll data are presented as mean ± SEM or as median (IQR). Pharmacokinetic analysis and modeling of the plasma concentration–time data was performed using PKSolver. Other statistical analysis and data visualization processes were performed using R software (version 4.0.3) and GraphPad Prism (version 7.04). The nominal significance level was 0.05 for all tests. The development of body weight, VMR results, and colonic compliance were assessed with generalized estimating equations (GEE) using an unstructured working correlation matrix, followed by Fisher’s least significant difference (LSD) post hoc test on prespecified pairwise comparisons of interest. Inflammatory parameters were analyzed using two-way analysis of variance (ANOVA), followed by Student–Newman–Keuls (SNK) post hoc testing when applicable. To evaluate the differences in proteolytic activities between control, post-colitis, treated, and untreated rats, a two-way ANOVA was conducted. Main effects were tested on split files with a Mann–Whitney U test with Bonferroni correction. To assess correlations between specific fecal or colonic proteolytic activities and inflammatory parameters, the pairwise comparisons of interest were determined a priori. Spearman’s rank order correlation coefficient was used and the Holm–Bonferroni method was applied to correct for multiplicity."}, "[3]": {"tested_on": "inflammatory infiltrate and mucosal architecture of distal colon", "assay": "Microscopic score of the distal colon", "format": "in vivo, Sprague–Dawley rats", "settings": "for Microscopy, Day of VMR: score 0–10, mean ± SEM, n = 8", "description": "For microscopic evaluation, a representative section of the distal colon (1 cm^2) was fixed in 4% formaldehyde for 24 h and embedded in paraffin for hematoxylin and eosin staining. Transverse sections (5 µm) were scored for the presence of inflammatory infiltrate and alterations in mucosal architecture, as previously described (total score 0–10, Supplementary Table S3)."}}, "note": "Several values for one entry are separate records, joined by “and”; a condition that tells them apart may be missing. Equal values may be shown once.", "data": [{"molecule": "CC(=O)Nc1ccc(OP(=O)(Oc2ccc(NC(C)=O)cc2)C(Cc2ccc(N=C(N)N)cc2)NC(=O)OCc2ccccc2)cc1.Cl", "note": "(stereo not shown) [UAMC-00050]", "values": [{"measurement": "inhibition of kallikrein 4", "setting": "kallikrein 4", "result": "efficiently inhibits"}, {"measurement": "inhibition of thrombin", "setting": "thrombin", "result": "efficiently inhibits"}, {"measurement": "Side-effects", "setting": "[1]", "result": "No side-effects"}, {"measurement": "Effect on inflammation", "setting": "dry eye syndrome", "result": "anti-inflammatory effects"}, {"measurement": "k12", "setting": "[2]; distribution to the peripheral compartment", "result": 0.028, "unit": "min⁻¹"}, {"measurement": "k21", "setting": "[2]; redistribution from peripheral to central compartment", "result": 0.014, "unit": "min⁻¹"}, {"measurement": "A", "setting": "[2]; two-compartment model", "result": 500.7, "unit": "ng/mL"}, {"measurement": "AUC 0-inf", "setting": "[2]; two-compartment model", "result": 5915, "unit": "ng·min/mL"}, {"measurement": "AUC 0-t", "setting": "[2]; two-compartment model", "result": 5422, "unit": "ng·min/mL"}, {"measurement": "AUMC", "setting": "[2]; two-compartment model", "result": "200,489 ng/mL*min2"}, {"measurement": "Alpha", "setting": "[2]; two-compartment model", "result": 0.119, "unit": "min⁻¹"}, {"measurement": "B", "setting": "[2]; two-compartment model", "result": 17.9, "unit": "ng/mL"}, {"measurement": "Beta", "setting": "[2]; two-compartment model", "result": 0.010, "unit": "min⁻¹"}, {"measurement": "C0", "setting": "[2]; two-compartment model", "result": 518.7, "unit": "ng/mL"}, {"measurement": "CL", "setting": "[2]; two-compartment model", "result": "0.0005072 (mg)/(ng/mL)/min"}, {"measurement": "CL2", "setting": "[2]; two-compartment model", "result": "0.0001621 (mg)/(ng/mL)/min"}, {"measurement": "MRT", "setting": "[2]; two-compartment model", "result": 33.9, "unit": "min"}, {"measurement": "V", "setting": "[2]; two-compartment model", "result": "0.006 (mg)/(ng/mL)"}, {"measurement": "V2", "setting": "[2]; two-compartment model", "result": "0.011 (mg)/(ng/mL)"}, {"measurement": "Vss", "setting": "[2]; two-compartment model", "result": "0.017 mg/(ng/mL)"}, {"measurement": "k10", "setting": "[2]; two-compartment model", "result": 0.087, "unit": "min⁻¹"}, {"measurement": "k12", "setting": "[2]; two-compartment model", "result": 0.028, "unit": "min⁻¹"}, {"measurement": "k21", "setting": "[2]; two-compartment model", "result": 0.014, "unit": "min⁻¹"}, {"measurement": "t1/2Beta", "setting": "[2]; two-compartment model", "result": 66.5, "unit": "min"}, {"measurement": "t1/2Alpha", "setting": "[2]; two-compartment model, 1 mg/kg", "result": "5.800 min and 5.8 min"}, {"measurement": "Microscopy, Day of VMR", "setting": "[3]; control rats, 5.0 mg/kg intracolonic", "result": "0.8 ± 0.4"}, {"measurement": "Microscopy, Day of VMR", "setting": "[3]; post-colitis rats, 0.1 mg/kg intracolonic", "result": "0.4 ± 0.4"}, {"measurement": "Microscopy, Day of VMR", "setting": "[3]; post-colitis rats, 1.0 mg/kg intracolonic", "result": "0.8 ± 0.4"}, {"measurement": "Microscopy, Day of VMR", "setting": "[3]; post-colitis rats, 2.5 mg/kg intracolonic", "result": "0.5 ± 0.4"}, {"measurement": "Microscopy, Day of VMR", "setting": "[3]; post-colitis rats, 5.0 mg/kg intracolonic", "result": "0.6 ± 0.4"}, {"measurement": "Effect on microscopic evaluation of mucosal damage", "setting": "[3]; single intracolonic administration, control and post-colitis rats", "result": "no effect"}]}]}
